Laboratory results reported in paper PMC5104480 (PLoS ONE, 2016).

Legend:
[1] = target: T1, HLMs, UGT1A1, UGT1A6 and UGT1A9 (Homo sapiens, UniProt P22309); settings: HLMs and UGT1A1; substrate chrysoeriol; compared with control
T1 sequence (P22309 26-533): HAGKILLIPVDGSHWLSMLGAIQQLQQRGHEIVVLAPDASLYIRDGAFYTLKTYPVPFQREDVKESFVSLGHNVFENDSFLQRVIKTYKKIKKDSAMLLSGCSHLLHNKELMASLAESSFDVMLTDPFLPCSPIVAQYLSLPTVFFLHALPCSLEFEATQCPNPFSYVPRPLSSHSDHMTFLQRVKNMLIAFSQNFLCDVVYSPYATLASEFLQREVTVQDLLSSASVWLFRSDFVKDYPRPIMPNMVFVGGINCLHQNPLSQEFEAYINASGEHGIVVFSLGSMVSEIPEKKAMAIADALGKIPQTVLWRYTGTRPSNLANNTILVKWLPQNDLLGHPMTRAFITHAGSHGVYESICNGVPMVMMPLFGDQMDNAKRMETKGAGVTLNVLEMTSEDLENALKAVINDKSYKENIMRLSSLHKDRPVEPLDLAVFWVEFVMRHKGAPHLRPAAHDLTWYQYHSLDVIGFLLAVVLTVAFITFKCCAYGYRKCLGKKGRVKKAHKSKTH
Procedure: (§1) The protein concentrations of the HLMs and expressed UGTs were 0.0021–0.0106 mg protein/mL. All of the incubations were run at 37°C for 30 min, and the way of pretreated and determined samples were as discribed above.

[2] = target: T2, HLMs, UGT1A1, UGT1A6 and UGT1A9 (Homo sapiens, UniProt O60656); settings: HLMs and UGT1A9, compared with control
T2 sequence (O60656 26-530): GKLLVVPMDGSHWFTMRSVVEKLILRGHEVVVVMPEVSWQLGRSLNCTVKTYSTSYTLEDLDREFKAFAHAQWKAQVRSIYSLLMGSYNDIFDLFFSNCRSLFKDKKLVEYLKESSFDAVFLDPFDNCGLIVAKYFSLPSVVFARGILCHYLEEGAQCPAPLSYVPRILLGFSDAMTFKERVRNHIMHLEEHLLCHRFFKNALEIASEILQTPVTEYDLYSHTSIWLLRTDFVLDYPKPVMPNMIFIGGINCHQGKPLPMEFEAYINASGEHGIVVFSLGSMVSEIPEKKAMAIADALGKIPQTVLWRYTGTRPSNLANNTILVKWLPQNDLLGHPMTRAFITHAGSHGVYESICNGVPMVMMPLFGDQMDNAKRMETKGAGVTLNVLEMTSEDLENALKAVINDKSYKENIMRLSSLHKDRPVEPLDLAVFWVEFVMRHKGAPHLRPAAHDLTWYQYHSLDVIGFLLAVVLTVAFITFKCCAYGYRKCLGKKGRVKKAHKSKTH
Procedure: as §1

HeLa cells = experiment: Glucuronide formation in HeLa cells (control); settings: HeLa cells without UGT1A9 (control)
Procedure: HeLa and HeLa—UGT1A9 cells were seeded into six-well plate at a density of 1.0 × 10^5 cells/well, and were grown using Dulbecco’s modified Eagle’smedium (DMEM) supplemented with 10% fetal bovine serum (FBS). After 3 ~ 4 days of seeding, the cells can be used for the glucuronidation experiments.
Brifely speaking, the cells were incubated at 37°C with loading solution (2 mL). […] The collected samples were mixed with 250 μL acetonitrile containing 25 nM tilianin and then analyzed by UHPLC—MS/MS after centrifugation at 13,000 rpm for 30 min. After the excretion experiment, the cells were washed and selected in 300 μL HBSS buffer, and then the cells were ultrasonicated. After centrifugation at 13,000 rpm for 30 min, the 200 μL supernatant was obtained and mixed with 100 μL acetonitrile containing 25 nM tilianin. The mixture was then centrifuged at 13,000 rpm for 30 min and prepared for subsequent UHPLC—MS/MS analysis.

HepG2 cells = experiment: MTT assay, HepG2 cells, with and without Ko143; assay type: cell-based
Procedure: The cells were further incubated at 37°C with 5% CO2 for 48 h. […] The supernatants were discarded, and 150 μL of dimethyl sulfoxide was added to each well. The plates were shaken for 10 min at room temperature, and then, the stained formazan product was determined at 570 nm with a multimode plate reader.

A549 cells = experiment: MTT assay, A549 cells, with and without Ko143; assay type: cell-based
Procedure: The cells were further incubated at 37°C with 5% CO2 for 48 h. The culture medium was removed and replaced with 100 μL 0.5 mg/mL 3-(4, 5-dimethylthiozol-2-yl)-3, 5-dipheryl tetrazolium bromide (MTT) solution and incubated at 37°C for 4 h. The supernatants were discarded, and 150 μL of dimethyl sulfoxide was added to each well. The plates were shaken for 10 min at room temperature, and then, the stained formazan product was determined at 570 nm with a multimode plate reader.

[3] = cited from earlier work
[4] = 10 μM substrate with 5 or 10 μM Ko143, 48 h
[5] = 10 μM substrate with 5 μM Ko143, 48 h
[6] = 10 μM substrate with 10 μM Ko143, 48 h

## C=CC1=C(C)/C(=C/c2[nH]c(Cc3[nH]c(/C=C4\NC(=O)C(C)=C4C=C)c(C)c3CCC(=O)O)c(CCC(=O)O)c2C)NC1=O [bilirubin]
[1]
  effect on formation of Chr-4′-G: significantly decrease

## Cc1ccc(C(C)C)cc1O [carvacrol]
[2]; substrate chrysoeriol
  effect on formation of Chr-7-G: significantly decrease
[2]; substrate diosmetin
  effect on formation of Dio-3′-G: significantly decrease

## COc1cc(-c2cc(=O)c3c(O)cc(O)cc3o2)ccc1O [chrysoeriol, 5,7,4′-trihydroxy-3′-methoxyflavone]
HeLa cells
  glucuronided metabolites in HeLa cells: did not find
HepG2 cells; [4]
  change of cytotoxicity when treated with Ko143: little change
A549 cells; [5]
  decrease of cell viability compared with substrate alone: 12%
A549 cells; [6]
  decrease of cell viability compared with substrate alone: 18%

## COc1ccc(-c2cc(=O)c3c(O)cc(O)cc3o2)cc1O [diosmetin, 5,7,3′-trihydroxy-4′-methoxyflavone]
HepG2 cells; [5]
  decrease of cell viability compared with substrate alone: 12%
HepG2 cells; [6]
  decrease of cell viability compared with substrate alone: 13%
A549 cells; [4]
  change of cytotoxicity when treated with Ko143: little change

## acacetin glucuronide
[3]
  Km: 14.5 µM

## genistein glucuronides
[3]
  Km: 15.1 µM
